Measurements reported in paper PMC6150024, “In Vitro Evaluation of Cytotoxicity and Permeation Study on Lysine- and Arginine-Based Lipopeptides with Proven Antimicrobial Activity” (Molecules : A Journal of Synthetic Chemistry and Natural …, 2017).
≈ marks a conversion by molar mass, not a printed value. Read-outs that look alike come from different tables or passages of the source. Residues, ends and D or L forms follow the SMILES beside them. *: point of attachment. Palmitoyl = CCCCCCCCCCCCCCCC(=O)*

Experiments:
HaCaT keratinocytes = assay type: cell-based, human
Procedure: HaCaT cells were obtained from American Type Culture Collection (ATCC). Cells were cultivated in Dulbecco’s modified Eagle Medium (Invitrogen) with 10% fetal bovine serum in humidified incubator at […] in 5% CO2 and cultured in 96-well plates and allowed to grow to 60–70% confluence prior to the start of the experiments.
The MTT assay is a colorimetric technique for assessing cell metabolic activity based on NAD(P)H-dependent cellular oxidoreductase enzymes activity that, under defined conditions, reflects the number of viable cells present. Viable cells reduce the tetrazolium dye MTT 3-(4,5-dimethylthiazol-2-yl)-2,5-diphenyltetrazolium bromide to its insoluble formazan, which has a purple colour. The colour intensity reflects the number of live cells and can be measured spectrophotometrically. Briefly, one day after culturing 500 cells per well, different concentrations of compounds were applied. After a 24-h incubation with the specified compounds, a medium containing 1 mg/mL MTT was added to the cells (HaCaT keratinocytes) up to a final concentration of 0.5 mg/mL and incubated at 37 °C for 4 h. The medium was then aspired, and the formazan product was solubilized with DMSO. The absorbance at 630 nm (background absorbance) was subtracted and absorbance measured at 570 nm for each well. There were 6 replicates for each tested concentration. All experiments were repeated at least twice. The resulting IC50 values were calculated with a GraFit 7 software (v. 7.0, Erithacus, Berkley, CA, USA).

[1] = test system: Candida albicans (ATCC 10231); set-up: method as in 2 sources, ref 11 = [11]; PMID 28203232; doi:10.3389/fmicb.2017.00123; 11. Greber K.E. Dawgul M. Kamysz W. Sawicki W. Cationic net charge and counter ion type as antimicrobial activity determinant factors of short lipopeptides Front. Microbiol. 2017 8 1 10 10.3389/fmicb. ||| ref 12 = [12]; PMID 24748099; doi:10.1007/s00726-014-1744-9; 12. Greber K.E. Dawgul M. Kamysz W. Sawicki W. Łukasiak J. Biological and surface-active properties of double-chain cationic amino acid-based surfactants Amino Acids 2014 46 1893 1898 10.1007/s00726-0; settings: cited from earlier work; for MIC C. albicans: ATCC 10231, serial dilution; for MFC C. albicans: ATCC 10231
[2] = test system: Staphylococcus aureus (ATCC 25923); assay type: cell-based; settings: for MBC S. aureus / MIC S. aureus: ATCC 25923, 18 h
Procedure: (§1) The compounds were dissolved in a mixture of dimethyl sulphoxide (DMSO) and phosphate buffer (PBS). […] MIC was determined by the serial dilution method on polystyrene 96-well plates with Mueller–Hinton II broth (MHB II) for reference bacterial strains: Staphylococcus aureus (ATCC 25923) and Escherichia coli (ATCC 25922), while for Candida albicans (ATCC 10231), the Sabouraud dextrose broth was applied. The microorganisms were obtained from the Polish Collection of Microorganisms (Wroclaw, Poland). Bacteria were cultured at 37 °C under aerobic conditions overnight in Brain Heart Infusion broth, centrifuged at 1000 rpm for 8 min, washed thrice with PBS and resuspended in MHB II. Candida albicans was cultured in Sabouraud dextrose broth for 48 h at 27 °C under aerobic conditions, centrifuged at 1000 rpm for 8 min, washed thrice with PBS and resuspended in Sabouraud dextrose broth. Bacterial (5 × 10^5 CFU/mL) and fungal (5 × 10^4 CFU/mL) suspensions were exposed to lipopeptides applied at graded concentrations (range 1–512 mg/L) for 18 h at 37 °C under aerobic conditions (bacteria) and 48 h at 27 °C under aerobic conditions (fungi). MIC was taken as the lowest concentration at which no visible growth of bacteria/fungi was observed. MBC and MFC were determined using MH II agar and Sabouraud Dextrose agar, for bacteria and fungi respectively. The contents of wells with MICs and two subsequent higher concentrations were transferred to agar plates and cultivated for 18 h at 37 °C under aerobic conditions (bacteria) and 48 h at 27 °C under aerobic conditions (fungi). The MBC and MFC were taken as the lowest concentrations at which no colony forming units were found. All tests were performed in triplicate.

[3] = test system: Escherichia coli (ATCC 25922); assay type: cell-based; settings: for MBC E. coli / MIC E. coli: ATCC 25922, 18 h
Procedure: as §1

[4] = test system: Staphylococcus aureus (ATCC 25923); set-up: method as in 2 sources, ref 11 = [11]; PMID 28203232; doi:10.3389/fmicb.2017.00123; 11. Greber K.E. Dawgul M. Kamysz W. Sawicki W. Cationic net charge and counter ion type as antimicrobial activity determinant factors of short lipopeptides Front. Microbiol. 2017 8 1 10 10.3389/fmicb. ||| ref 12 = [12]; PMID 24748099; doi:10.1007/s00726-014-1744-9; 12. Greber K.E. Dawgul M. Kamysz W. Sawicki W. Łukasiak J. Biological and surface-active properties of double-chain cationic amino acid-based surfactants Amino Acids 2014 46 1893 1898 10.1007/s00726-0; settings: cited from earlier work; for MIC S. aureus: ATCC 25923, serial dilution; for MBC S. aureus: ATCC 25923
[5] = test system: Escherichia coli (ATCC 25922); set-up: method as in 2 sources, ref 11 = [11]; PMID 28203232; doi:10.3389/fmicb.2017.00123; 11. Greber K.E. Dawgul M. Kamysz W. Sawicki W. Cationic net charge and counter ion type as antimicrobial activity determinant factors of short lipopeptides Front. Microbiol. 2017 8 1 10 10.3389/fmicb. ||| ref 12 = [12]; PMID 24748099; doi:10.1007/s00726-014-1744-9; 12. Greber K.E. Dawgul M. Kamysz W. Sawicki W. Łukasiak J. Biological and surface-active properties of double-chain cationic amino acid-based surfactants Amino Acids 2014 46 1893 1898 10.1007/s00726-0; settings: cited from earlier work; for MIC E. coli: ATCC 25922, serial dilution; for MBC E. coli: ATCC 25922
human red blood cells = settings: cited from earlier work
Text: (§2) The results of the MTT assay obtained in this study indicate high toxicity of lipopeptides containing one palmitic acid chain. This contradicts the previously advanced hypotheses about the selectivity of antimicrobial peptides. According to some authors, peptides designed based on naturally occurring compounds in human organisms are expected to be safe to human cells and their selectivity results from the presence of cholesterol and arrangement of lipids in the eukaryotic cell membrane. […] In the previou ...

[6] = assay type: physicochemical
Procedure: as §1

human keratinocytes = settings: cited from earlier work
Text: as §2

[7] = test system: Candida albicans (ATCC 10231); assay type: cell-based; settings: ATCC 10231, 48 h
Procedure: as §1

[8] = MTT assay, 24 h exposure, 6 replicates per concentration, experiments repeated at least twice
[9] = classification of antimicrobial peptides from patent

| Compound | IC50 ± SD on HaCaT keratinocytes (HaCaT keratinocytes; 24 h) | Concentration at which solutions were obtained [6] | MFC C. albicans [7] | MIC C. albicans [7] | MBC S. aureus [2] | MIC S. aureus [2] | MBC E. coli [3] | MIC E. coli [3] | also measured |
| --- | --- | --- | --- | --- | --- | --- | --- | --- | --- |
| (C10)2-KKKK-NH2 | – | – | – | – | – | – | – | – | IC50 ± SD on HaCaT keratinocytes (HaCaT keratinocytes; [8]): 49.4 ± 9.1 mg/L; MIC C. albicans ([1]; Table 1 ref 12): 128 µg/mL; MFC C. albicans ([1]; Table 1 ref 12): 256 µg/mL; Activity class against S. aureus by classification of Shai and Abrahami [2, 9]: highly active; Activity class against E. coli by classification of Shai and Abrahami [3, 9]: active; MIC S. aureus ([4]; Table 1 ref 12): 8 µg/mL; MBC S. aureus ([4]; Table 1 ref 12): 16 µg/mL; MIC E. coli ([5]; Table 1 ref 12): 16 µg/mL; MBC E. coli ([5]; Table 1 ref 12): 16 µg/mL; Toxicity towards human red blood cells at microbiologically active concentrations (human red blood cells): non-toxic |
| CCCCCCCCCCCCCCCC(=O)N[C@@H](CCCCN)C(=O)N[C@@H](CCCCN)C(N)=O [Lipopeptide C16-KK-NH2] | 1.8 ± 0.2 mg/L (≈ 3.52 µM) | 512 µg/mL | – | – | – | – | – | – | MIC C. albicans ([1]; Table 1 ref 11): 128 µg/mL (≈ 250 µM); MFC C. albicans ([1]; Table 1 ref 11): 128 µg/mL (≈ 250 µM); MIC S. aureus ([4]; Table 1 ref 11): 4 µg/mL (≈ 7.82 µM); MBC S. aureus ([4]; Table 1 ref 11): 4 µg/mL (≈ 7.82 µM); MIC E. coli ([5]; Table 1 ref 11): 8 µg/mL (≈ 15.6 µM); MBC E. coli ([5]; Table 1 ref 11): 8 µg/mL (≈ 15.6 µM); Concentration with negative influence on proliferation and viability of human keratinocytes (human keratinocytes): ≥ 1 µg/mL |
| CCCCCCCCCCCCCCCC(=O)N[C@@H](CCCNC(=N)N)C(=O)N[C@@H](CCCNC(=N)N)C(N)=O [Lipopeptide C16-RR-NH2] (Palmitoyl-Arg-Arg-NH2) | 1.9 ± 0,3 mg/L | – | 256 µg/mL (≈ 451 µM) | 128 µg/mL (≈ 225 µM) | 8 µg/mL (≈ 14.1 µM) | 8 µg/mL (≈ 14.1 µM) | 16 µg/mL (≈ 28.2 µM) | 16 µg/mL (≈ 28.2 µM) | – |
| CCCCCCCCCCCCCCCC(=O)N[C@@H](CCCCN)C(=O)N[C@@H](CCCNC(=N)N)C(=O)N[C@@H](CCCCN)C(N)=O [Lipopeptide C16-KRK-NH2] (Palmitoyl-Lys-Arg-Lys-NH2) | 2.3 ± 0.4 mg/L (≈ 3.44 µM) | 512 µg/mL | 256 µg/mL (≈ 383 µM) | 128 µg/mL (≈ 192 µM) | 16 µg/mL (≈ 24 µM) | 4 µg/mL (≈ 5.99 µM) | 16 µg/mL (≈ 24 µM) | 8 µg/mL (≈ 12 µM) | – |
| (C12)2-KKKK-NH2 | – | – | – | – | – | – | – | – | IC50 ± SD on HaCaT keratinocytes (HaCaT keratinocytes; [8]): 42.1 ± 9.1 mg/L; MIC C. albicans ([1]; Table 1 ref 12): 256 µg/mL; MFC C. albicans ([1]; Table 1 ref 12): 512 µg/mL; MIC S. aureus ([4]; Table 1 ref 12): 16 µg/mL; MBC S. aureus ([4]; Table 1 ref 12): 32 µg/mL; MIC E. coli ([5]; Table 1 ref 12): 64 µg/mL; MBC E. coli ([5]; Table 1 ref 12): 64 µg/mL |
| CCCCCCCCCCCCCCCC(=O)N[C@@H](CCCNC(=N)N)C(=O)N[C@@H](CCCNC(=N)N)C(=O)N[C@@H](CCCNC(=N)N)C(N)=O [Lipopeptide C16-RRR-NH2] (Palmitoyl-Arg-Arg-Arg-NH2) | 3.2 ± 1.4 mg/L (≈ 4.42 µM) | – | 256 µg/mL (≈ 354 µM) | 128 µg/mL (≈ 177 µM) | 4 µg/mL (≈ 5.52 µM) | 2 µg/mL (≈ 2.76 µM) | 16 µg/mL (≈ 22.1 µM) | 16 µg/mL (≈ 22.1 µM) | – |
| CCCCCCCCCCCCCCCC(=O)N[C@@H](CCCCN)C(=O)NCCCC[C@H](N)C(N)=O [Lipopeptide C16-KεK-NH2] | 7.4 ± 0.9 mg/L (≈ 14.5 µM) | – | 256 µg/mL (≈ 500 µM) | 128 µg/mL (≈ 250 µM) | 8 µg/mL (≈ 15.6 µM) | 8 µg/mL (≈ 15.6 µM) | 32 µg/mL (≈ 62.5 µM) | 16 µg/mL (≈ 31.3 µM) | – |
| CCCCCCCCCCCCCCCC(=O)N[C@@H](CCCCN)C(=O)N[C@@H](CCCCN)C(=O)N[C@@H](CCCCN)C(N)=O [Lipopeptide C16-KKK-NH2] | 3.2 ± 0.1 mg/L (≈ 5 µM) | 512 µg/mL | – | – | – | – | – | – | MIC C. albicans ([1]; Table 1 ref 11): 128 µg/mL (≈ 200 µM); MFC C. albicans ([1]; Table 1 ref 11): 128 µg/mL (≈ 200 µM); MIC S. aureus ([4]; Table 1 ref 11): 4 µg/mL (≈ 6.25 µM); MBC S. aureus ([4]; Table 1 ref 11): 8 µg/mL (≈ 12.5 µM); MIC E. coli ([5]; Table 1 ref 11): 8 µg/mL (≈ 12.5 µM); MBC E. coli ([5]; Table 1 ref 11): 16 µg/mL (≈ 25 µM) |
